{
  "source": "patent US8466203B2",
  "about": "“Method of stabilizing human eye tissue by reaction with nitrite and related agents such as nitro compounds” (priority 2006, dated 2013)",
  "key": {"human sclera": {"test_system": "human sclera", "assay": "Thermal shrinkage temperature analysis of human scleral strips", "conditions": "pH 7.4, 37° C., 96 hrs", "excerpt": "(§1) Thermal shrinkage temperature or denaturation temperature (Ts) is a technique that has been used for decades in studying collagen cross-linking. As collagen fibers are progressively heated, a threshold temperature is reached at which point disruption of hydrogen bonding in the collagen molecule triple helix occurs, resulting in unwinding of the triple helices. The denaturation of tertiary protein structure results in a rapid shrinkage of the tissue of up to 80%. This phenomenon can be expressed in various ways including temperature of onset of tissue shrinkage, temperature at maximal tissue shrinkage, and temperature at 50% of maximal tissue shrinkage, for example. In addition, differential scanning calorimetry (DSC) is related to thermal shrinkage temperature analysis and is widely used to evaluate biomaterial cross-linking. Thermal shrinkage temperature is essentially a simplified version of DSC and can be used effectively to screen the cross-linking efficacy of compounds. For the purposes of this study, the onset of shrinkage is considered the Ts and the temperature at which 50% of maximal shrinkage has occurred is T50. Graphs depicting the relationship between degree of shrinkage and temperature indicate differences in degree of cross-linking between groups. Thus, stabilization of collagen fiber structures through non-enzymatic cross-linking increases Ts and T50. A 5° C. upward shift in Ts for the anterior corneal stroma has been shown for the UVR cross-linking method (Spoerl, E., et al., 2004).\n(§2) A semi-automated system has been developed which increases the efficiency and accuracy of Ts data collection. This system can perform multiple Ts assays in succession, allowing rapid screening of a number of potential cross-linking agents and conditions. […] Inlet and outlet fittings allow for constant circulation of heated water which is modulated by a digitally controlled water bath equipped with a water pump. The entire box is placed on a digital photo scanner connected to a Windows based computer. Beginning at 50° C. the temperature is raised at a rate of 1° C./min and serial scans are taken at every degree increase in temperature up to 80° C. Control pig corneas shrink at approximately 63° C. and cross-linked tissue at higher temperatures. As the tissue shrinks, the images are captured by the scanner. The image files are later analyzed for 2-dimensional area using NIH Image J software and % shrinkage calculations are made using Microsoft Excel for graphing purposes. This method obviates the need for removal of tissue pieces from the water bath with manual micrometer measurements as described by the UVR group (Spoerl, E., et al., 2004). Thus, the labor involved in acquiring data is lessened and the accuracy using image analysis is improved.\nShrinkage temperature (Ts) of porcine cornea (FIG. 16) and porcine and human sclera (FIGS. 17 and 18) cross-linked with 2-nitroethanol. […] Following reaction, thermal shrinkage temperature analysis was performed (Table 4). Several compounds were studied including NaNO2, 2-nitroethanol, 2-nitro-1-propanol, 3-nitro-2-pentanol, 2-nitrophenol, 2-nitroethane, 2-aminoethanol, isopentyl nitrite, DPTA/NO, DETA/NO, and urea, a nitrous acid trap."}, "porcine sclera": {"test_system": "porcine sclera", "assay": "Thermal shrinkage temperature analysis of porcine scleral strips", "conditions": "for T50 (temperature at 50% of maximal shrinkage) / T50 Δ (change in 50% shrinkage temperature compared to control) / Ti (temperature at 1% absolute shrinkage): pH 7.4, 37° C., 96 hrs", "excerpt": "as §1, with “T50.” for “T50. A 5° C. upward shift in Ts for the anterior corneal stroma has been shown for the UVR cross-linking method (Spoerl, E., et al., 2004).”\nas §2, with “This” for “A semi-automated system has been developed which increases the efficiency and accuracy of Ts data collection. This”, “Control pig corneas shrink at approximately 63° C. and cross-linked tissue at higher temperatures.” left out, “2004).” for “2004). Thus, the labor involved in acquiring data is lessened and the accuracy using image analysis is improved.”\nUsing this simple, reproducible assay enables the screening of a number of compounds for cross-linking efficacy. This is first performed using porcine eyes because of their low cost. Follow up studies can be performed using human eyes. Porcine eyes are obtained within 6 hrs of sacrifice (Hatfield Meat Packing, Inc., Hatfield Pa.). Eyes showing clear corneas and intact epithelia are chosen for study. […] Each strip is then cross-linked using a nitro agent. […] Opthalmol. 1999; 117:166-169) for 24-96 hrs. Following incubation, the samples are evaluated for degree of cross-linking using the Ts assay as described above.\nFrom the data, Ts curves are generated for each compound and condition studied. Each data point is the average of 3 independent samples."}},
  "note": "Several values for one entry are separate records, joined by “and”; a condition that tells them apart may be missing. Equal entries are not always repeated.",
  "data": [
    {"smiles": "O=[N+]([O-])CCO", "note": "[2-nitroethanol]", "values": [
      {"measurement": "T50 (temperature at 50% of maximal shrinkage)", "setting": "human sclera; 1 mM", "result": 66.3, "unit": "°C"},
      {"measurement": "T50 Δ (change in 50% shrinkage temperature compared to control)", "setting": "human sclera; 1 mM", "result": 0.3, "unit": "°C"},
      {"measurement": "Ti (temperature at 1% absolute shrinkage)", "setting": "human sclera; 1 mM", "result": 60.8, "unit": "°C"},
      {"measurement": "T50 (temperature at 50% of maximal shrinkage)", "setting": "human sclera; 10 mM", "result": 68.2, "unit": "°C"},
      {"measurement": "T50 Δ (change in 50% shrinkage temperature compared to control)", "setting": "human sclera; 10 mM", "result": 2.2, "unit": "°C"},
      {"measurement": "Ti (temperature at 1% absolute shrinkage)", "setting": "human sclera; 10 mM", "result": 64.4, "unit": "°C"},
      {"measurement": "T50 (temperature at 50% of maximal shrinkage)", "setting": "human sclera; 100 mM", "result": 73.5, "unit": "°C"},
      {"measurement": "T50 Δ (change in 50% shrinkage temperature compared to control)", "setting": "human sclera; 100 mM", "result": 7.5, "unit": "°C"},
      {"measurement": "Ti (temperature at 1% absolute shrinkage)", "setting": "human sclera; 100 mM", "result": 71.7, "unit": "°C"},
      {"measurement": "T50 (temperature at 50% of maximal shrinkage)", "setting": "porcine sclera; 1 mM reagent", "result": 65.7, "unit": "°C"},
      {"measurement": "T50 Δ (change in 50% shrinkage temperature compared to control)", "setting": "porcine sclera; 1 mM reagent", "result": 0.4, "unit": "°C"},
      {"measurement": "Ti (temperature at 1% absolute shrinkage)", "setting": "porcine sclera; 1 mM reagent", "result": 62.9, "unit": "°C"},
      {"measurement": "Ts shift", "setting": "porcine sclera; 1 mM serially applied over 10 days", "result": "2-3 °C"},
      {"measurement": "shift in Ts (in words)", "setting": "porcine sclera; 1 mM, 4 days (96 hrs) without replacing the incubation solution", "result": "did not produce a shift in Ts"},
      {"measurement": "T50 shift", "setting": "porcine sclera; 1 mM, incubation solution exchanged daily, 6 days", "result": 1.3, "unit": "°C"},
      {"measurement": "T50 shift", "setting": "porcine sclera; 1 mM, incubation solution exchanged daily, 10 days", "result": 3.2, "unit": "°C"},
      {"measurement": "T50 shift", "setting": "porcine sclera; 1 mM, incubation solution exchanged daily, 14 days", "result": "5.4 °C and 5.6 °C"},
      {"measurement": "T50 (temperature at 50% of maximal shrinkage)", "setting": "porcine sclera; 10 mM reagent", "result": 69.8, "unit": "°C"},
      {"measurement": "T50 Δ (change in 50% shrinkage temperature compared to control)", "setting": "porcine sclera; 10 mM reagent", "result": 4.5, "unit": "°C"},
      {"measurement": "Ti (temperature at 1% absolute shrinkage)", "setting": "porcine sclera; 10 mM reagent", "result": 67.2, "unit": "°C"},
      {"measurement": "maximal increase of Ts", "setting": "porcine sclera; 100 mM", "result": 8, "unit": "°C"},
      {"measurement": "T50 (temperature at 50% of maximal shrinkage)", "setting": "porcine sclera; 100 mM reagent", "result": 73.7, "unit": "°C"},
      {"measurement": "Ti (temperature at 1% absolute shrinkage)", "setting": "porcine sclera; 100 mM reagent", "result": 70.7, "unit": "°C"},
      {"measurement": "T50 shift", "setting": "porcine sclera; 100 mM, 24 hrs of incubation", "result": 1.4, "unit": "°C"},
      {"measurement": "T50 shift", "setting": "porcine sclera; 100 mM, 48 hrs of incubation", "result": 2.4, "unit": "°C"},
      {"measurement": "T50 shift", "setting": "porcine sclera; 100 mM, 72 hrs of incubation", "result": 5.3, "unit": "°C"},
      {"measurement": "blocking of the cross-linking effect by equimolar urea", "setting": "porcine sclera; equimolar urea (nitrous acid trapping agent)", "result": "not blocked"}
    ]}
  ]
}
